In patent US20110144331A1, “Cinnoline Compounds for the Treatment of Anxiety, Cognitive and Mood Disorders” (AstraZeneca AB, priority 2005, published 2011):

What was measured:
[1] = molecular target: T1, human α1β2γ2 GABAA receptor (Homo sapiens, UniProt P14867+P18507); assay: Two-electrode voltage-clamp in Xenopus oocytes, potentiation of GABA EC10 current, GABAA1; type: cell-based; settings: percentage potentiation of GABA EC10 current divided by that of diazepam control
T1 construct: expressed in transfected cells; host or cells: Xenopus laevis oocytes injected with capped cRNA
Method: (§1) GABAA receptors were heterologously expressed in Xenopus oocytes by injecting cRNA corresponding to human α1, α2, α3, α5, β2, β3 and γ2 subunits of the GABAA receptor genes. The specific subunit combinations (subtypes) were as follows: α1β2γ2, α2β3γ2, α3β3γ2, and α5β3γ2. The EC10 of GABA was approximated for each cell. Stability of GABA-mediated (EC10) current was established. Modulatory effect of test compound was determined and compared across subtypes. […] Thus, the assay can characterize modulatory effects and determine subtype selectivity of test compounds on major subtypes of GABAA receptors.
(§2) Surgically removed ovarian lobes were teased out in OR2 solution (82 NaCl, 2.5 KCl, 5 HEPES, 1.5 NaH2PO4, 1 MgCl2, 0.1 EDTA, in mM, pH 7.4). The oocytes were defolliculated by incubation in 25 mL OR2 containing 0.2% collagenase 1A (SIGMA) two times for about 60 minutes on a platform shaker and stored in Leibovitz's L-15 medium. Oocytes were injected the following day in 0.5× Leibovitz's L-15 medium containing […] gentamycin, 10 units/ml penicillin, and […] streptomycin.
(§3) Capped cRNAs from the linearized vectors containing human α1, β2 and γ2 subunits of the GABAA receptor genes were mixed in ratio of 1:1:30. Oocytes were injected with 25-50 nL of mixed RNA with an appx molar ratio for α1, β2, and γ2 as 1:1:10. Oocyte recordings were done 2-10 days after injection. The same methods apply to subtypes derived from α2β2γ2, α3β3γ2, and α5β3γ2, except for 1:1:1 ratio was used for α, β, and γ subunits.
(§4) All measurements were done in a medium containing ND-96 (96 NaCl, 2 KCl, 1.8 CaCl2.2H2O, 1 MgCl2.6H2O, 5 HEPES, in mM, pH 7.5). Two-electrode voltage-clamp recording was carried out using OpusXpress amplifier (Axon Instruments, Foster City, Calif.), which allows simultaneous recording from 8 oocytes. Oocytes were impaled with two electrodes of 1-2 MΩ tip resistance when filled with 3M KCl. Recordings were begun when membrane potential became stable at potentials negative to −50-−60 mV. Membrane potential was held at −60 mV. […] The concentration of GABA corresponded to the EC10 value calculated for each oocyte. The modulator pulses started 30 s before the GABA pulse so as to allow preincubation with the modulator. A set of 3 pulses with just GABA without modulator was given prior to the modulator-containing pulses to define the baseline GABA response. Two oocytes per each experiment were dedicated to observe the effect of diazepam on GABA response to ensure the presence of γ2 subunit in the GABAA pentameric complex, which imparts diazepam sensitivity to the complex.
(§5) Current amplitude (i) was measured from baseline to peak using Clampfit (Axon Inst., Foster City, Calif.). Potentiation was calculated as percent change from the baseline GABA current flux 100×(imod/icontrol)−1) where imod=current mediated by modulator+GABA and icontrol=current mediated by GABA alone. […] Similarly, a value of −50% potentiation means the presence of modulator caused a 50% decrease in the control current. Various other data shown here were fitted and plotted using GraphPad Prism (GraphPad Software, Inc. San Diego, Calif.). The percentage potentiation was converted to relative potentiation by dividing it with percentage potentiation value obtained from the same assay with diazepam as a control.

[2] = molecular target: T2, human α2β3γ2 GABAA receptor (Homo sapiens, UniProt P18507+P47869); assay: Two-electrode voltage-clamp in Xenopus oocytes, potentiation of GABA EC10 current, GABAA2; type: cell-based; settings: percentage potentiation of GABA EC10 current divided by that of diazepam control
T2 construct: expressed in transfected cells; host or cells: Xenopus laevis oocytes injected with capped cRNA (α:β:γ 1:1:1)
Method: as §1, §2, §3, §4, §5

T2 sequence (P47869 29-451): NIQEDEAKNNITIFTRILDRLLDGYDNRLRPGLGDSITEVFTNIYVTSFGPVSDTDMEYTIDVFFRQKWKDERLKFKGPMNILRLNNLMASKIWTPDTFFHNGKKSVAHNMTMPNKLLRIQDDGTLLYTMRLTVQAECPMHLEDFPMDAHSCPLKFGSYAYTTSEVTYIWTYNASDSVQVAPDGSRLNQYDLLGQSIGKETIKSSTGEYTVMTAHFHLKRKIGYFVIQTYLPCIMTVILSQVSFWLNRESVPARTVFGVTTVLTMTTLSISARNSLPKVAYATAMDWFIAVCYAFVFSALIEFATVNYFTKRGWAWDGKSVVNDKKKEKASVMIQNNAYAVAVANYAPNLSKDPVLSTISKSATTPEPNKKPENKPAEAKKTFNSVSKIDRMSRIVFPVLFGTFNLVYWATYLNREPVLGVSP
T2 sequence (P18507 40-475): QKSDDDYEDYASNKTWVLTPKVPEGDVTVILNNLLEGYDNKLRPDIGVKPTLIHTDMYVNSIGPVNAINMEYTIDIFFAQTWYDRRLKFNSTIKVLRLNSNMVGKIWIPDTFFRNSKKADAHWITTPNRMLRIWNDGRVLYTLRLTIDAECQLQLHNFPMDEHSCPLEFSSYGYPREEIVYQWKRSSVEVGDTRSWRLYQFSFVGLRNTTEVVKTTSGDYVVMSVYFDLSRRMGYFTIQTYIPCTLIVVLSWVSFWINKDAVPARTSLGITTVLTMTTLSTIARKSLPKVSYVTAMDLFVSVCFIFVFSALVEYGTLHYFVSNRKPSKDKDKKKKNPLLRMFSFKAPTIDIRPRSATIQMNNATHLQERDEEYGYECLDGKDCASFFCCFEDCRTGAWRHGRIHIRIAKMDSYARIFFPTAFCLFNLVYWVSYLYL
T2 sequence (P28472 26-473 partner): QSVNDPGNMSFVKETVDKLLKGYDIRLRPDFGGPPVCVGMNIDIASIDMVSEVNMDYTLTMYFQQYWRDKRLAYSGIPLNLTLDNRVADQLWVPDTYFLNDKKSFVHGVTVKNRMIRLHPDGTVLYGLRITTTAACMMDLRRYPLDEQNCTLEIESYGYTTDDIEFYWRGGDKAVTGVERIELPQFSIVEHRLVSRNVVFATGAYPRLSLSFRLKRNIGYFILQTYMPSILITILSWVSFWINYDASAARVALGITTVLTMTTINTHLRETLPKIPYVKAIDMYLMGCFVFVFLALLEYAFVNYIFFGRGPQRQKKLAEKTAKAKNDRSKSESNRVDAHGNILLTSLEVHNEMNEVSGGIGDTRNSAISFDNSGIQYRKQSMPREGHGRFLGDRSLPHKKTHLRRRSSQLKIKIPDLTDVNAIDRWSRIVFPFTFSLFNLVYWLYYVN
T1 sequence (P14867 28-456): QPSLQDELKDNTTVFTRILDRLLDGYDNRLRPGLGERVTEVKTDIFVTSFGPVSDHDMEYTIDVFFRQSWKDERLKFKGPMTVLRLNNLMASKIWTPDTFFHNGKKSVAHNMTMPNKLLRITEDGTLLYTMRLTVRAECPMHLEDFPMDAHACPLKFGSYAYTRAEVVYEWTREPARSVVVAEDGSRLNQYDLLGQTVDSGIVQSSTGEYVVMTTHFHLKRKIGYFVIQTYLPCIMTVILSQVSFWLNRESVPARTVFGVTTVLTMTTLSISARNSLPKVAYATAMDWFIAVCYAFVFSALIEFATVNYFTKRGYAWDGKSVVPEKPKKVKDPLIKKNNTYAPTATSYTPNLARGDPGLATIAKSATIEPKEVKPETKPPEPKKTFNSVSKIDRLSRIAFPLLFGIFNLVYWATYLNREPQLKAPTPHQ
T1 sequence (P47870 25-512 partner limits assumed): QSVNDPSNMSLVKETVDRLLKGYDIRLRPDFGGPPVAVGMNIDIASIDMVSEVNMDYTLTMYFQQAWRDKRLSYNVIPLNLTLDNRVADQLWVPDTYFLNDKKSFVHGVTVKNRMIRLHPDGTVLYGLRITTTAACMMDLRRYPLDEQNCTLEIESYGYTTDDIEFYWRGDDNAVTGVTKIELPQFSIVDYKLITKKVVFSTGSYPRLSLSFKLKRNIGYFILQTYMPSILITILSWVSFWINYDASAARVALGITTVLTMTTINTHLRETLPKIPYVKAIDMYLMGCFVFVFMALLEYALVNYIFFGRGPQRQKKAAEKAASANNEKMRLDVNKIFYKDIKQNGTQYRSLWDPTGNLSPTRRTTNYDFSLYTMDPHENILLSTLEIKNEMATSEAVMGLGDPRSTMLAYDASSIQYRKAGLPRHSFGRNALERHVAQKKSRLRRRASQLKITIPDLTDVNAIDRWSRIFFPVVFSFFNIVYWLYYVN
T1 sequence (P18507 40-475): as the sequence (P18507 40-475) above

Compound: CCCNC(=O)c1nnc2c(-c3cccc(N(C)C)c3)cccc2c1N
- Relative Potentiation for GABAA1 [1]: 0.17
- Relative Potentiation for GABAA2 [2]: 0.19

Compound: CCCNC(=O)c1nnc2c(-c3ccsc3)cccc2c1N
- Relative Potentiation for GABAA1 [1]: −0.26
- Relative Potentiation for GABAA2 [2]: 0.038

Compound: CCCNC(=O)c1nnc2c(-c3ccccc3)c(F)ccc2c1N
- Relative Potentiation for GABAA1 [1]: −0.093
- Relative Potentiation for GABAA2 [2]: 0.02

Compound: CCCNC(=O)c1nnc2c(-c3cccc(Cl)c3)cccc2c1N
- Relative Potentiation for GABAA1 [1]: 0.18
- Relative Potentiation for GABAA2 [2]: 0.53

Compound: CCCNC(=O)c1nnc2c(-c3cc(F)ccc3F)c(F)ccc2c1N
- Relative Potentiation for GABAA1 [1]: 0.013
- Relative Potentiation for GABAA2 [2]: 0.098

Compound: CCCNC(=O)c1nnc2c(-c3ccc(Cl)cc3)c(F)ccc2c1N
- Relative Potentiation for GABAA1 [1]: 0.02
- Relative Potentiation for GABAA2 [2]: 0.19

Compound: CCCNC(=O)c1nnc2c(-c3ccc(F)cc3F)cccc2c1N
- Relative Potentiation for GABAA1 [1]: −0.088
- Relative Potentiation for GABAA2 [2]: 0.12

Compound: CCCNC(=O)c1nnc2c(-c3cc(OC)ccc3Cl)c(F)ccc2c1N
- Relative Potentiation for GABAA1 [1]: 0.14
- Relative Potentiation for GABAA2 [2]: 0.19

Compound: CCCNC(=O)c1nnc2c(-c3cnc(OC)c(Cl)c3)cccc2c1N
- Relative Potentiation for GABAA1 [1]: 0.086
- Relative Potentiation for GABAA2 [2]: 0.04

Compound: CCCNC(=O)c1nnc2c(-c3ccc(OC)cc3C(F)(F)F)cccc2c1N
- Relative Potentiation for GABAA1 [1]: 0.12
- Relative Potentiation for GABAA2 [2]: 0.16

Compound: CCCNC(=O)c1nnc2c(-c3ccc(OC)cc3OC)c(Cl)ccc2c1N
- Relative Potentiation for GABAA1 [1]: 0.87

Compound: CCCNC(=O)c1nnc2c(-c3cc(F)ccc3F)cccc2c1N
- Relative Potentiation for GABAA1 [1]: −0.078
- Relative Potentiation for GABAA2 [2]: 0.29

Compound: CCCNC(=O)c1nnc2c(-c3cc(F)c(OC)cc3F)cccc2c1N
- Relative Potentiation for GABAA1 [1]: 0.016
- Relative Potentiation for GABAA2 [2]: 0.21

Compound: CCCNC(=O)c1nnc2c(-c3cnc(OC)nc3OC)c(F)ccc2c1N
- Relative Potentiation for GABAA1 [1]: 0.12
- Relative Potentiation for GABAA2 [2]: 0.39

Compound: CCNC(=O)c1nnc2c(-c3cnc(OC)c(F)c3)cccc2c1N
- Relative Potentiation for GABAA1 [1]: −0.010
- Relative Potentiation for GABAA2 [2]: 0.223

Compound: CCCNC(=O)c1nnc2c(-c3cc(OC)cc(OC)c3)c(F)ccc2c1N
- Relative Potentiation for GABAA1 [1]: 0.38

Compound: CCCNC(=O)c1nnc2c(-c3cc(F)ccc3C)c(F)ccc2c1N
- Relative Potentiation for GABAA1 [1]: 0.032
- Relative Potentiation for GABAA2 [2]: 0.12

Compound: CCCNC(=O)c1nnc2c(-c3cnc(OC)nc3)cccc2c1N
- Relative Potentiation for GABAA1 [1]: −0.066
- Relative Potentiation for GABAA2 [2]: 0.11

Compound: CCCNC(=O)c1nnc2c(-c3ccc(F)cc3OC)cccc2c1N
- Relative Potentiation for GABAA1 [1]: 0.12
- Relative Potentiation for GABAA2 [2]: 0.38

Compound: CCCNC(=O)c1nnc2c(-c3cnccn3)cccc2c1N
- Relative Potentiation for GABAA1 [1]: −0.067
- Relative Potentiation for GABAA2 [2]: −0.01

Compound: CCCNC(=O)c1nnc2c(-c3cc(OC)ccc3C)cccc2c1N
- Relative Potentiation for GABAA1 [1]: 0.1
- Relative Potentiation for GABAA2 [2]: 0.22

Compound: CCNC(=O)c1nnc2c(-c3ccc(OC)cc3OC)cccc2c1N
- Relative Potentiation for GABAA1 [1]: −0.006
- Relative Potentiation for GABAA2 [2]: 0.104

Compound: CNC(=O)c1nnc2c(-c3cc(C)ccc3OC)cccc2c1N
- Relative Potentiation for GABAA1 [1]: 0.19
- Relative Potentiation for GABAA2 [2]: 0.43

Compound: CCCCNC(=O)c1nnc2c(-c3cc(C)ccc3OC)cccc2c1N
- Relative Potentiation for GABAA1 [1]: 0.32

Compound: CCCNC(=O)c1nnc2c(-c3cc(C(F)(F)F)ccc3Cl)cccc2c1N
- Relative Potentiation for GABAA1 [1]: 0.47
- Relative Potentiation for GABAA2 [2]: 0.59

Compound: CCCNC(=O)c1nnc2c(-c3nc(Br)ccc3OC)cccc2c1N
- Relative Potentiation for GABAA1 [1]: 0.34

Compound: CCCNC(=O)c1nnc2c(-c3cc(Cl)ccc3Cl)cccc2c1N
- Relative Potentiation for GABAA1 [1]: 0.12
- Relative Potentiation for GABAA2 [2]: 0.21

Compound: CCCNC(=O)c1nnc2c(-c3cccc(OC(F)(F)F)c3)cccc2c1N
- Relative Potentiation for GABAA1 [1]: 0.87
- Relative Potentiation for GABAA2 [2]: 0.48

Compound: CCCNC(=O)c1nnc2c(-c3ccc(F)cc3OC)c(F)ccc2c1N
- Relative Potentiation for GABAA1 [1]: −0.028
- Relative Potentiation for GABAA2 [2]: 0.18

Compound: CCCNC(=O)c1nnc2c(-c3ccc4ccccc4c3)cccc2c1N [drawing 381]
- Relative Potentiation for GABAA1 [1]: 0.22
- Relative Potentiation for GABAA2 [2]: 0.09

Compound: CCCNC(=O)c1nnc2c(-c3cc(OC)c(OC)c(OC)c3)cccc2c1N
- Relative Potentiation for GABAA1 [1]: 0.4
- Relative Potentiation for GABAA2 [2]: 0.67

Compound: CCCNC(=O)c1nnc2c(-c3cccc(OC)c3F)c(F)ccc2c1N
- Relative Potentiation for GABAA1 [1]: 0.05
- Relative Potentiation for GABAA2 [2]: 0.23

Compound: CCCNC(=O)c1nnc2c(-c3cccc(C)c3C)c(F)ccc2c1N
- Relative Potentiation for GABAA1 [1]: 0.11
- Relative Potentiation for GABAA2 [2]: 0.13

Compound: CCCNC(=O)c1nnc2c(-c3ccc(N(C)C)cc3)cccc2c1N
- Relative Potentiation for GABAA1 [1]: 0.07
- Relative Potentiation for GABAA2 [2]: 0.18

Compound: CCCNC(=O)c1nnc2c(-c3cc(F)ccc3OC)c(F)ccc2c1N
- Relative Potentiation for GABAA1 [1]: 0.085
- Relative Potentiation for GABAA2 [2]: 0.22

Compound: CCCNC(=O)c1nnc2c(-c3ccc4[nH]ccc4c3)cccc2c1N
- Relative Potentiation for GABAA1 [1]: 0.15
- Relative Potentiation for GABAA2 [2]: 0.16

Compound: CCCNC(=O)c1nnc2c(-c3cc(Cl)ccc3OC)cccc2c1N
- Relative Potentiation for GABAA1 [1]: 0.38
- Relative Potentiation for GABAA2 [2]: 0.4

Compound: CCCNC(=O)c1nnc2c(-c3cnc(OC)c(F)c3)cccc2c1N
- Relative Potentiation for GABAA1 [1]: −0.012
- Relative Potentiation for GABAA2 [2]: 0.14

Compound: Nc1c(C(=O)NCC2CC2)nnc2c(-c3ccccc3)cccc12
- Relative Potentiation for GABAA1 [1]: 0.11
- Relative Potentiation for GABAA2 [2]: 0.24

Compound: CCCNC(=O)c1nnc2c(-c3cc(Cl)cc(Cl)c3)cccc2c1N
- Relative Potentiation for GABAA1 [1]: 0.28
- Relative Potentiation for GABAA2 [2]: 0.48

Compound: CCCNC(=O)c1nnc2c(-c3cccnc3OC)cccc2c1N
- Relative Potentiation for GABAA1 [1]: 0.2
- Relative Potentiation for GABAA2 [2]: 0.097

Compound: CCCNC(=O)c1nnc2c(-c3cc(Cl)cc(Cl)c3)c(F)ccc2c1N
- Relative Potentiation for GABAA1 [1]: 0.36

Compound: CCCNC(=O)c1nnc2c(-c3cccc(OC)c3F)cccc2c1N
- Relative Potentiation for GABAA1 [1]: 0.045
- Relative Potentiation for GABAA2 [2]: 0.26

Compound: CCCNC(=O)c1nnc2c(-c3cccc(C(=O)O)c3)cccc2c1N
- Relative Potentiation for GABAA1 [1]: −0.038
- Relative Potentiation for GABAA2 [2]: 0.08

Compound: CCCNC(=O)c1nnc2c(-c3cccc(S(C)(=O)=O)c3)cccc2c1N
- Relative Potentiation for GABAA1 [1]: 0.34
- Relative Potentiation for GABAA2 [2]: 0.26

Compound: CCCCNC(=O)c1nnc2c(-c3cnc(OC)nc3OC)cccc2c1N
- Relative Potentiation for GABAA1 [1]: 0.16
- Relative Potentiation for GABAA2 [2]: 0.45

Compound: COc1ccc(F)cc1-c1cccc2c(N)c(C(=O)NC3CC3)nnc12
- Relative Potentiation for GABAA1 [1]: −0.028
- Relative Potentiation for GABAA2 [2]: 0.357

Compound: COc1ncccc1-c1cccc2c(N)c(C(=O)NC3CC3)nnc12
- Relative Potentiation for GABAA1 [1]: −0.054
- Relative Potentiation for GABAA2 [2]: 0.247

Compound: CCCNC(=O)c1nnc2c(-c3cc(Cl)ccc3Cl)c(F)ccc2c1N
- Relative Potentiation for GABAA1 [1]: 0.21

Compound: CCCNC(=O)c1nnc2c(-c3cc(Cl)ccc3OC)c(F)ccc2c1N
- Relative Potentiation for GABAA1 [1]: 0.25

Compound: CCCNC(=O)c1nnc2c(-c3ccc(OC)cc3C(F)(F)F)c(F)ccc2c1N
- Relative Potentiation for GABAA1 [1]: 0.28

Compound: CCCNC(=O)c1nnc2c(-c3ccc(OC)c(OC)c3OC)c(F)ccc2c1N
- Relative Potentiation for GABAA1 [1]: 0.51

Compound: CCCNC(=O)c1nnc2c(-c3ccc(F)cc3OCC)c(F)ccc2c1N
- Relative Potentiation for GABAA1 [1]: 0.27

Compound: CCNC(=O)c1nnc2c(-c3cc(C)ccc3OC)cccc2c1N
- Relative Potentiation for GABAA1 [1]: 0.23

Compound: CCCNC(=O)c1nnc2c(-c3cc(C(=O)N4CCC4)ccc3OC)cccc2c1N
- Relative Potentiation for GABAA1 [1]: 0.48

Compound: CCCNC(=O)c1nnc2c(-c3cc(OC)ccc3OC)c(Cl)ccc2c1N
- Relative Potentiation for GABAA1 [1]: 0.32

Compound: CCCNC(=O)c1nnc2c(-c3cc(C)ccc3OC)c(Cl)ccc2c1N
- Relative Potentiation for GABAA1 [1]: 0.47
